The subject of assay [1] is cucumber downy mildew. The experiment in a line: Test on curative effect against cucumber downy mildew. The assay is classed as in vivo, Cucumber (cultivar: Sagamihanshirofushinari). The procedure: Cucumber (cultivar: Sagamihanshirofushinari) was cultivated in a polyethylene pot having a diameter of 7.5 cm, and when it reached two-leaf stage, the cucumber was sprayed and inoculated with a suspension of spores of cucumber downy mildew and kept in a humidified chamber at 20° C. for 20 hours. Then, after drying the crop plant, a drug solution having the respective test compounds adjusted to the predetermined concentrations, was applied in a sufficient amount (20 ml) by means of a spray gun. After the sprayed solution dried, it was kept in a thermostatic chamber at 20° C. for 5 days, whereupon the lesion area ratio was obtained. The results are shown in is Tables 3 and 4.
(§1) The lesion area ratio in non-treated area was obtained in the same manner as in the treated area except that instead of the drug solution, water was applied by means of a spray gun.
Further, a theoretical value can be calculated by the Colby formula. If the experimental value is lower than the theoretical value by the Colby formula, the fungicidal composition for agricultural or horticultural use of the present invention has a synergistic effect for controlling the plant disease. In this context, the theoretical values by the Colby formula are also shown in brackets ( ) in Tables 3 and 4.

Assay [2] deals with tomato late blight. The assay is classed as in vivo, Tomato (cultivar: Ponderosa). The settings on record: Test Example 4 (curative).
In assay [3] the test system is cucumber downy mildew. The experiment in a line: Test on preventive effect against cucumber downy mildew. The format is in vivo, Cucumber (cultivar: Sagamihanshirofushinari). On the procedure:
Cucumber (cultivar: Sagamihanshirofushinari) was cultivated in a polyethylene pot having a diameter of 7.5 cm, and when the cucumber reached two-leaf stage, a drug solution having the respective test compounds adjusted to the predetermined concentrations (applied amount: 1000 L/ha), was applied by means of a spray gun. After the applied solution dried, the cucumber was sprayed and inoculated with a suspension of spores of cucumber downy mildew and kept in a humidified chamber at 20° C. for 20 hours. Thereafter, the cucumber was kept in a thermostatic chamber at 20° C. for 7 days, whereupon the lesion area rate was obtained. Here, the lesion area rate is a value obtained in such a manner that lesion area of Downy Mildew of specimen leaves was obtained by visual examination, and its ratio to the total area of specimen leaves is shown by percent.
as §1
Further, a theoretical value can be calculated by the Colby formula. If the experimental value is lower than the theoretical value by the Colby formula, the fungicidal composition for agricultural or horticultural use of the present invention has a synergistic effect for controlling the plant disease. In this context, the theoretical values by the Colby formula are also shown in brackets ( ) in Tables 1 and 2.

The subject of assay [4] is tomato late blight. The assay is classed as in vivo, Tomato (cultivar: Ponderosa).
The test system of another assay is Grape Downy Mildew. The experiment in a line: Test on preventive effect against grape downy mildew (leaf disks test). The format is in vivo, grapes (cultivar: Neomuscat). The text has this: Leaf disks having a diameter of 1 cm were punched out with leaf puncher from leaves of grapes (cultivar: Neomuscat), and a drug solution having the respective test compounds adjusted to the predetermined concentrations (applied amount: 500 L/ha), was applied to the leaf disks by means of an indoor spray equipment. After the applied solution dried, the leaf disks were transferred to petri dishes having a diameter of 3 cm, a suspension of zoosporangium of Grape Downy Mildew was dropwise applied, and the leaf disks were inoculated. They were kept in a chamber at 20° C. for 10 days. Then, the disease severity index of each disk was investigated by the following standards, and the disease severity was obtained by the following formula.
The disease severity in non-treated area was obtained in the same manner as in the treated area except that instead of the drug solution, water was applied by means of an auto sprayer.
Disease outbreak index 0: No sporogenesis is observed.
Disease severity index 1: The sporogenesis area is less than 10% of the drop area.
Disease severity index 2: The sporogenesis area is from 10% to less than 50% of the drop area.
Disease severity index 3: The sporogenesis area is from 50% to less than 90% of the drop area.
Disease severity index 4: The sporogenesis area is at least 90% of the drop area.
Disease severity=[(0×A+1×B+2×C+3×D+4×E)/{4×(A+B+C+D+E)}]×100
where A is the number of disks with disease severity index 0, B is the number of disks with disease severity index 1, C is the number of disks with disease severity index 2, D is the number of disks with disease severity index 3, and E is the number of disks with disease severity index 4.
Further, a theoretical value can be calculated by the Colby formula. If the experimental value is lower than the theoretical value by the Colby formula, the fungicidal composition for agricultural or horticultural use of the present invention has a synergistic effect for controlling the plant disease. In this context, the theoretical values by the Colby formula are also shown in brackets ( ) in Tables 9 and 10.

The structures appear in SMILES notation. Read-outs that look alike come from different tables or passages of the source.

Turning to `COC(=O)[C@@H](C)N(C(=O)Cc1ccccc1)c1c(C)cccc1C` [Benalaxyl-M], the “Lesion area ratio in the test on curative effect against cucumber downy mildew” value in the assay on cucumber downy mildew [1] (Benalaxyl-M 400 ppm alone) is reported as 100%. The “Disease severity in the test on preventive effect against tomato late blight” value (from here on “Disease severity … against tomato late blight”) in the assay with tomato late blight [2] (Benalaxyl-M 50 ppm alone) is given as 94; in the assay with tomato late blight [2] (Benalaxyl-M 200 ppm alone), 75; in the assay with tomato late blight [4] (Benalaxyl-M 25 ppm alone), 100; in the assay on tomato late blight [4] (Benalaxyl-M 100 ppm alone), 100. The “Lesion area ratio in the test on preventive effect against cucumber downy mildew” value with cucumber downy mildew [3] (Benalaxyl-M 25 ppm alone) came to 100%. Also, in the assay on Grape Downy Mildew (Benalaxyl-M 0.024 ppm alone), the “Disease severity in the test on preventive effect against grape downy mildew” value (“Disease severity … against grape downy mildew” below) came to 100.

On to `Cc1ccc(-c2c(Cl)nc(C#N)n2S(=O)(=O)N(C)C)cc1` [Compound No. 1, 4-chloro-2-cyano-1-dimethylsulfamoyl-5-(4-methylphenyl) imidazole], for which the “Lesion area ratio in the test on curative effect against cucumber downy mildew” value in the assay on cucumber downy mildew [1] (Compound No. 1 50 ppm alone) and with cucumber downy mildew [1] (Compound No. 1 200 ppm alone) was 100% throughout. Further, the “Disease severity … against tomato late blight” value came to 100 in the assay on tomato late blight [2] (Compound No. 1 50 ppm alone), 94 with tomato late blight [2] (Compound No. 1 400 ppm alone), 19 in the assay with tomato late blight [4] (Compound No. 1 1.6 ppm alone) and 12 in the assay with tomato late blight [4] (Compound No. 1 6.3 ppm alone). The “Lesion area ratio in the test on preventive effect against cucumber downy mildew” value in the assay with cucumber downy mildew [3] (Compound No. 1 0.2 ppm alone) was 10%. The figures for the “Disease severity … against grape downy mildew” value in the assay with Grape Downy Mildew (Compound No. 1 0.098 ppm alone) and in the assay on Grape Downy Mildew (Compound No. 1 0.39 ppm alone) were 100 and 40, respectively.

Regarding `COc1ccc(/C(=C\C(=O)N2CCOCC2)c2ccc(F)cc2)cc1OC` [Flumorph], the “Lesion area ratio in the test on curative effect against cucumber downy mildew” value in the assay on cucumber downy mildew [1] (Flumorph 400 ppm alone) is 90%. For the same compound, the “Disease severity … against tomato late blight” value is listed as 100 in the assay on tomato late blight [2] (Flumorph 50 ppm alone), 37 in the assay on tomato late blight [2] (Flumorph 200 ppm alone), 100 in the assay with tomato late blight [4] (Flumorph 6.3 ppm alone) and 100 in the assay on tomato late blight [4] (Flumorph 12.5 ppm alone). Further, in the assay with cucumber downy mildew [3] (Flumorph 12.5 ppm alone), the “Lesion area ratio in the test on preventive effect against cucumber downy mildew” value is reported as 20%. Moreover, the “Disease severity … against grape downy mildew” value with Grape Downy Mildew (Flumorph 1.6 ppm alone) worked out at 40.

These data come from patent US20090163567A1 (priority 2005, published 2009).
